Source: ChEMBL document CHEMBL3421598, “Structure-activity relationships of the prototypical TRPM8 agonist icilin” (Bioorg Med Chem Lett, 2015)

Columns and labels:
Format in all cases: cell-based
[1] = target: Transient receptor potential cation channel subfamily M member 8 (Rattus norvegicus) (UniProt Q8R455); experiment: Agonist activity at rat TRPM8 expressed in HEK293 cells assessed as induction of intracellular Ca2+ level by Fluo-4-AM dye based spectrofluorimetry relative to 4 uM ionomycin
[2] = target: T1, Transient receptor potential cation channel subfamily M member 8 (Rattus norvegicus, UniProt Q8R455); experiment: Antagonist activity against rat TRPM8 expressed in HEK293 cells assessed as inhibition of icilin-induced intracellular Ca2+ level pre-treated 5 mins before icilin stimulation by Fluo-4-AM dye based spectrofluorimetry
[3] = target: T1, Transient receptor potential cation channel subfamily M member 8; experiment: Agonist activity at rat TRPM8 expressed in HEK293 cells assessed as induction of intracellular Ca2+ level by Fluo-4-AM dye based spectrofluorimetry
[4] = target: Transient receptor potential cation channel subfamily V member 1 (Homo sapiens, UniProt Q8NER1); experiment: Antagonist activity against human TRPV1 expressed in HEK293 cells assessed as inhibition of capsaicin-induced intracellular Ca2+ level pre-treated 5 mins before capsaicin stimulation by Fluo-4-AM dye based spectrofluorimetry
Chain of Transient receptor potential cation channel subfamily V member 1 (Q8NER1 whole entry): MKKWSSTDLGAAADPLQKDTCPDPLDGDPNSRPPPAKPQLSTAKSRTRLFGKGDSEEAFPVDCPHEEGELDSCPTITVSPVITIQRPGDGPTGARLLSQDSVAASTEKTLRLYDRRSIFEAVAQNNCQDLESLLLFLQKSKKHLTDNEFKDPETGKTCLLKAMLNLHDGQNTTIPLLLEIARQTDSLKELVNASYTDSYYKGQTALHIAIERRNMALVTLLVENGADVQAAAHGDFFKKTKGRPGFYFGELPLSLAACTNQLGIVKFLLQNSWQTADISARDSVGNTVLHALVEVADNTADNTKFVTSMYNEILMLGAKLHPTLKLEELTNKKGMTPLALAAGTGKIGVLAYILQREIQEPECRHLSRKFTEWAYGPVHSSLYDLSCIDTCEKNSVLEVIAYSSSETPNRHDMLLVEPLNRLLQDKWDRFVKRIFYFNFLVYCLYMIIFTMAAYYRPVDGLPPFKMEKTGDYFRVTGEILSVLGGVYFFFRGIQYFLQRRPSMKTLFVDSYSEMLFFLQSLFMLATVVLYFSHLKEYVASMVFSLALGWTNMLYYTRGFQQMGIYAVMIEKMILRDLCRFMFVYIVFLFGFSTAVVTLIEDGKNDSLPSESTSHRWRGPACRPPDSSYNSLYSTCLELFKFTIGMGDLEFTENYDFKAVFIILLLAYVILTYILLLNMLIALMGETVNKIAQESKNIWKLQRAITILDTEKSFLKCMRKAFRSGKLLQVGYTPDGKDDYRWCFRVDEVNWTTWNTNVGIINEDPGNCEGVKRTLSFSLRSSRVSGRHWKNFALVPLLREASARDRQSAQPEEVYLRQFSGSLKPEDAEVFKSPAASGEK

T1 sequence (Q8R455 whole entry): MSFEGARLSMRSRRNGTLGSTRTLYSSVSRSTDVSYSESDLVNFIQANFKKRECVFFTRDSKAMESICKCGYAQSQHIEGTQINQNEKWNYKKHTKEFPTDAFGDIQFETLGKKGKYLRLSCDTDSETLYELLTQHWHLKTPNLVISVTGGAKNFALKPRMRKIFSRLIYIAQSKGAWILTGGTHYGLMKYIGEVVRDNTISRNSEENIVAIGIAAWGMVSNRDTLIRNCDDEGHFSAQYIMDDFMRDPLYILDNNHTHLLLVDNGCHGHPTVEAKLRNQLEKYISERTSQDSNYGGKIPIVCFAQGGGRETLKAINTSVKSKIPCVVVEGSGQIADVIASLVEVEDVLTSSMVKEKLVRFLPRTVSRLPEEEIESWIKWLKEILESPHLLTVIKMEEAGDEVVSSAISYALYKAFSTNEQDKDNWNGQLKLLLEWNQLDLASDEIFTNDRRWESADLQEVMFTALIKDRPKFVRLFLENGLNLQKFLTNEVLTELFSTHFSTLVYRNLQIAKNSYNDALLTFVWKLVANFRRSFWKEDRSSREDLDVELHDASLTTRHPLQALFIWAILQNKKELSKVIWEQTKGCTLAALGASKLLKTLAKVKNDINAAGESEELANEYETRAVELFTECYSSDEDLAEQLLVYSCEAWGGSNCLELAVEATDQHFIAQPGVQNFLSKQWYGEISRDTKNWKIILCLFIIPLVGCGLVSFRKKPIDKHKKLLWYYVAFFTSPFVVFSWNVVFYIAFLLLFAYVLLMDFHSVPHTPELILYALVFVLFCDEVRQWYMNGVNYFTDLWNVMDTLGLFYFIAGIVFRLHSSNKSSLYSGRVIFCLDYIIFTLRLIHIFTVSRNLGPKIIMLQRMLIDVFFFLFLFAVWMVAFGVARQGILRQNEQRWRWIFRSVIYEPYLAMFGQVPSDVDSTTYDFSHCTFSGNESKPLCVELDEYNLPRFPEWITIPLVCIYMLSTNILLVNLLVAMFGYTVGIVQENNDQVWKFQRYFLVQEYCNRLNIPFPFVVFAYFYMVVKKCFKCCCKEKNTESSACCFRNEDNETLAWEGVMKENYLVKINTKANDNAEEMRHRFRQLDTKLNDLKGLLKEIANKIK
Chain of Transient receptor potential cation channel subfamily M member 8 (Rattus norvegicus) (Q8R455 whole entry, looked up): as the sequence (Q8R455 whole entry) above

Row | SMILES | Efficacy [1] [%] | IC50 [2] [µM] | EC50 [3] [nM] | IC50 [4] [µM]
1 | O=C1NC(c2ccc([N+](=O)[O-])cc2)=CCN1c1ccccc1O | < 10 | 5.7 | – | –
2 | NC(=O)c1ccccc1N1CC=C(c2cccc([N+](=O)[O-])c2)NC1=O | 47.2 | 8.3 | 15400 | –
3 | O=C1NC(c2cccc([N+](=O)[O-])c2)=CCN1c1ccc(O)cc1 | < 10 | 11.3 | – | –
4 | O=C1NC(c2cccc([N+](=O)[O-])c2)=CCN1c1ccccc1Cl | 41.8 | 0.95 | 890 | –
5 | O=C(/C=C/c1cccc([N+](=O)[O-])c1)Nc1cccc(O)c1 | – | > 10 | – | > 10
6 | O=C(/C=C/c1cccc([N+](=O)[O-])c1)Nc1cccc(Cl)c1 | – | 0.17 | – | 7.1
7 | O=C(/C=C/c1cccc([N+](=O)[O-])c1)Nc1ccccc1CO | – | > 10 | – | > 10
8 | O=C1NC(c2cccc([N+](=O)[O-])c2)=CCN1c1cccc(Br)c1 | 47 | 1.5 | 600 | –
9 | O=C(/C=C/c1cccc([N+](=O)[O-])c1)Nc1ccccc1Cl | – | 1.7 | – | > 10
10 | COc1cccc(NC(=O)/C=C/c2cccc([N+](=O)[O-])c2)c1 | – | 1.1 | – | 2.1
11 | O=C1NC2=C(CCc3ccc([N+](=O)[O-])cc32)CN1c1ccccc1O | < 10 | 18.1 | – | –
12 | O=C1NC(c2cccc([N+](=O)[O-])c2)=CCN1c1cccc(Cl)c1 | 45.6 | 4.4 | 1500 | –
13 | CS(=O)(=O)Nc1cccc(-n2cc(-c3cccc([N+](=O)[O-])c3)[nH]c2=O)c1 | < 10 | 26 | – | –
14 | O=C1NC(c2cccc([N+](=O)[O-])c2)=CCN1c1cccc(CO)c1 | < 10 | 15.7 | – | –
15 | O=C(CCc1cccc([N+](=O)[O-])c1)Nc1cccc(I)c1 | – | 0.43 | – | 4.3
16 | COc1ccc(N2CC=C(c3cccc([N+](=O)[O-])c3)NC2=O)cc1 | < 10 | 40 | – | –
17 | Cc1cccc(NC(=O)/C=C/c2cccc([N+](=O)[O-])c2)c1 | – | 0.4 | – | > 10
18 | O=C(/C=C/c1cccc([N+](=O)[O-])c1)Nc1ccccc1I | – | 1.05 | – | > 10
19 | Cc1ccc(O)c(N2CC=C(c3ccc([N+](=O)[O-])cc3)NC2=O)c1 | < 10 | 16.9 | – | –
20 | NC(=O)c1ccccc1N1CC=C(c2ccc([N+](=O)[O-])cc2)NC1=O | < 10 | 11.4 | – | –
21 | COc1cccc(N2CC=C(c3cccc([N+](=O)[O-])c3)NC2=O)c1 | 57.5 | 0.24 | 130 | –
22 | CC(C)c1ccccc1NC(=O)/C=C/c1cccc([N+](=O)[O-])c1 | – | 6.1 | – | > 10
23 | O=C1NC(c2ccc([N+](=O)[O-])cc2)=CCN1c1cccc(O)c1 | < 10 | 10.9 | – | –
24 | Cc1ccc(O)c(N2CC=C(c3cccc([N+](=O)[O-])c3)NC2=O)c1 | 69.4 | 0.26 | 140 | –
25 | COc1ccccc1N1CC=C(c2ccc([N+](=O)[O-])cc2)NC1=O | < 10 | 11.4 | – | –
26 | O=c1[nH]c(-c2cccc([N+](=O)[O-])c2)cn1-c1ccccc1O | < 10 | 3.5 | – | –
27 | O=C(/C=C/c1cccc([N+](=O)[O-])c1)Nc1cccc(Br)c1 | – | 0.14 | – | 2.5

Row | SMILES | Efficacy [1] [%] | IC50 [2] [µM] | EC50 [3] [nM] | IC50 [4] [µM]
28 | CCNC(=O)c1ccccc1N1CC=C(c2cccc([N+](=O)[O-])c2)NC1=O | < 10 | 22 | – | –
29 | CC(C)c1cccc(NC(=O)/C=C/c2cccc([N+](=O)[O-])c2)c1 | – | 0.17 | – | 4.1
30 | O=C(/C=C/c1cccc([N+](=O)[O-])c1)Nc1cccc(I)c1 | – | 0.073 | – | 1.2
31 | O=C1NC(c2cccc([N+](=O)[O-])c2)=CCN1c1cccc(I)c1 | 30.9 | 0.47 | 300 | –
32 | CC(C)(C)c1cccc(NC(=O)/C=C/c2cccc([N+](=O)[O-])c2)c1 | – | 0.6 | – | > 10
33 | O=C1NC(c2cccc([N+](=O)[O-])c2)=CCN1c1ccccc1O [ICILLIN] | 75.1 | 0.058 | – | –
34 | COc1ccccc1N1CC2=C(NC1=O)c1ccccc1CC2 | < 10 | 6.6 | – | –
35 | CS(=O)(=O)Nc1ccccc1NC(=O)/C=C/c1cccc([N+](=O)[O-])c1 | – | > 10 | – | > 10
36 | CC1=C(c2cccc([N+](=O)[O-])c2)NC(=O)N(c2ccccc2O)C1 | 10.8 | 14.3 | > 10000 | –
37 | COc1cccc(N2CC=C(c3cccc([N+](=O)[O-])c3)N(C)C2=O)c1 | < 10 | 68.4 | – | –
38 | O=C(/C=C/c1cccc([N+](=O)[O-])c1)Nc1ccccc1O | – | 1.9 | – | > 10
39 | O=C1NC(c2cccc([N+](=O)[O-])c2)=CCN1c1cccc(O)c1 | 62 | 1.5 | 1700 | –
40 | COc1cccc(-n2cc(-c3cccc([N+](=O)[O-])c3)[nH]c2=O)c1 | < 10 | 33.9 | – | –
41 | O=C1NC2=C(CCc3ccccc32)CN1c1ccccc1O | < 10 | 5.7 | – | –
42 | COc1ccccc1N1CC=C(c2cccc([N+](=O)[O-])c2)NC1=O | 18.5 | 8.3 | 1100 | –
43 | O=C(/C=C/c1cccc([N+](=O)[O-])c1)Nc1ccccc1Br | – | 1.5 | – | > 10
44 | Cc1ccc(N2CC=C(c3cccc([N+](=O)[O-])c3)NC2=O)c(O)c1 | 46 | 1.4 | 1200 | –
45 | O=C1NC(c2cccc([N+](=O)[O-])c2)=CCN1c1ccccc1CO | 20.4 | 12 | 5000 | –
46 | COc1ccccc1NC(=O)/C=C/c1cccc([N+](=O)[O-])c1 | – | 1.8 | – | 10.7
47 | O=C1NC(c2cccc([N+](=O)[O-])c2)=CCN1c1ccccc1Br | 48.2 | 1.03 | 620 | –
48 | O=C1NC(c2ccc([N+](=O)[O-])cc2)=CCN1c1ccc(O)cc1 | < 10 | 11.4 | – | –
49 | O=C1NC2=C(CCc3c2cccc3[N+](=O)[O-])CN1c1ccccc1O | < 10 | 3.1 | – | –
50 | Cc1ccccc1NC(=O)/C=C/c1cccc([N+](=O)[O-])c1 | – | 2 | – | > 10
51 | O=C1NC(c2cccc([N+](=O)[O-])c2)=CCN1c1ccccc1I | 52.7 | 3.2 | 1200 | –
52 | CS(=O)(=O)Nc1cccc(N2CC=C(c3cccc([N+](=O)[O-])c3)NC2=O)c1 | < 10 | 46.4 | – | –
53 | O=C1NC(c2cccc([N+](=O)[O-])c2)=CCN1c1ccccc1F | < 10 | 8.7 | – | –
54 | O=C(/C=C/c1cccc([N+](=O)[O-])c1)Nc1cccc(CO)c1 | – | 6.5 | – | 6.1
